Laboratory results from patent publication US20050208029A1, “Method of forming pancreatic beta cells from mesenchymal cells” (priority 2002, published 2005).

Test system: KUSA/A1 cells
Assay: Insulin concentration (ELISA) in supernatant of KUSA/A1 cells cultured 12 days with or without bFGF
Format: cell-based, mouse
Conditions: 2 h after 25.0 mM glucose
Experimental: The KUSA/A1 cells obtained in Example 1 were treated with trypsin and transferred to a 6-well dish (product of Falcon) so that the cell density might become as low as possible.
The cells were cultured in serum-free DMEM containing insulin, transferrin, progesterone, putrescine and selenium or in DMEM containing 10% FBS at 33° C. for 12 days using an incubator with a CO2 concentration of 5%.
bFGF (recombinant human basic fibroblast growth factor; product of R&D) was added to each of the serum-free or serum-containing wells to a final concentration of 10 ng/ml. Hereafter, unless otherwise specified, cell culture was carried out under the same conditions while medium exchange was conducted at 2-day intervals.
After 12 days of cultivation, the medium in each well was discarded, the cells in each well were washed repeatedly with three portions of PBS. After washing, 2 ml of PBS was added to each well afresh, and cultivation was performed at 33° C. for 2 hours using an incubator with a CO2 concentration of 5%.
After 2 hours of cultivation, the PBS was discarded, 2 ml of DMEM containing 25.0 mM glucose was added afresh, and cultivation was performed at 33° C. for further 2 hours using an incubator with a CO2 concentration of 5%. […]

“bFGF: recombinant human basic fibroblast growth factor; product of R&D; used as pancreatic β cell forming agent” was tested, and the “insulin detected in the supernatant” value (DMEM containing bFGF (10 ng/ml) and 10% FBS, below assay sensitivity limit) was “below 39 pg/mL” and the “insulin detected in the supernatant” value (serum-free DMEM containing bFGF (10 ng/ml), insulin, transferrin, progesterone, putrescine and selenium) was 223 pg/mL.
